The values that follow come from ChEMBL document CHEMBL3352326, “Synthesis of 2,3-di- and 2,2,3-trisubstituted-3-methoxycarbonyl-γ-butyrolactones as potent antitumor agents” (Eur J Med Chem, 2015).

What all share (format): functional
Assay [1] is described as follows: Growth inhibition of human HCT116 cells at 10 uM after 72 hrs by MTS assay. Conditions: HCT-116, 72 h, read-out: GI.
Assay [2] can be described thus: Growth inhibition of human HL60 cells at 10 uM after 72 hrs by MTS assay. Particulars: HL-60, 72 h, read-out: GI. (In general: Tetrazolium assays rely on reduction of a dye to a coloured formazan, in cell work by metabolically active cells.)
A further assay relates to MCF7. In words: Growth inhibition of human MCF7 cells at 10 uM after 72 hrs by MTS assay. Conditions: MCF7, 72 h, read-out: GI.
The test system of a further assay is KB. Briefly: Growth inhibition of human KB cells at 10 uM after 72 hrs by MTS assay. Particulars: read-out: GI.

For the compound `COC(=O)C1(Cc2ccccc2OC)CC(=O)OC1c1ccccc1` (configuration not stated), the inhibition of growth at 10 µM in assay [1] was found to be 23%; in assay [2], 42%; with MCF7, 18%; in the assay with KB, 7%.

Turning to `COC(=O)C1(Cc2ccc(OC)cc2)CC(=O)OC1c1ccccc1C(F)(F)F` (configuration not stated), the inhibition of growth at 10 µM in assay [1] is 0%; in assay [2] it was 23%; in the assay on MCF7, 0%; with KB it was 31%.

Turning to `COC(=O)C1(Cc2cccc(OC)c2)CC(=O)OC1c1cc(OC)c(OC)c(OC)c1` (configuration not stated), the inhibition of growth at 10 µM in assay [1] was found to be 20%; in assay [2], 10%; in the assay with MCF7 it was 13%; in the assay with KB, 0%.

For the compound `COC(=O)C1(Cc2ccccc2)CC(=O)OC1(C)c1cc(OC)c(OC)c(OC)c1` (configuration not stated), the inhibition of growth at 10 µM turned out to be 0% in assay [1], 7% in assay [2], 2% with MCF7 and 0% in the assay with KB.

Turning to `COC(=O)C1(Cc2ccccc2)CC(=O)OC1(C)c1cccc(C(F)(F)F)c1` (configuration not stated), the inhibition of growth at 10 µM in assay [1] is 14%; in assay [2] it was 20%; with MCF7, 14%; with KB it was 34%.

Consider `COC(=O)C1(Cc2ccccc2C(F)(F)F)CC(=O)OC1c1ccccc1` (configuration not stated), for which the inhibition of growth at 10 µM in assay [1] turned out to be 25%; in assay [2] it was 28%; with MCF7 it was 35%; in the assay with KB it was 42%.

Regarding `COC(=O)C1(Cc2ccccc2)CC(=O)OC12CCCCC2` (configuration not stated), the inhibition of growth at 10 µM in assay [1] is 0%; in assay [2], 4%; in the assay with MCF7 it was 1%; with KB, 7%.

In the case of `COC(=O)C1(Cc2ccc(OC)cc2)CC(=O)OC1c1cccc(C(F)(F)F)c1` (configuration not stated), the inhibition of growth at 10 µM in assay [1] was found to be 10%; in assay [2] it was 14%; in the assay on MCF7, 15%; in the assay on KB it was 25%.

`COC(=O)C1(Cc2ccc(C(F)(F)F)cc2)CC(=O)OC1c1ccccc1` (configuration not stated): the inhibition of growth at 10 µM is 4% in assay [1], 4% in assay [2], 0% with MCF7 and 4% with KB.

In the case of `COC(=O)C1(Cc2ccccc2)CC(=O)OC1c1cc(OC)c(OC)c(OC)c1` (configuration not stated), the inhibition of growth at 10 µM in assay [1] was 7%; in assay [2], 27%; in the assay on MCF7, 17%; with KB, 2%.

For `COC(=O)C1(Cc2ccc(OC)cc2)CC(=O)OC1c1ccc(F)cc1` (configuration not stated), the inhibition of growth at 10 µM came out at 0% in assay [1], 37% in assay [2], 4% in the assay with MCF7 and 33% with KB.

On to `COC(=O)C1(Cc2ccccc2)CC(=O)OC1c1ccccc1` (configuration not stated), for which the inhibition of growth at 10 µM in assay [1] stood at 0%; in assay [2], 22%; in the assay on MCF7, 0%; with KB, 18%.

Consider `COC(=O)C1(Cc2ccccc2OC)CC(=O)OC1c1cc(OC)c(OC)c(OC)c1` (configuration not stated), for which the inhibition of growth at 10 µM in assay [1] was 19%; in assay [2] it was 22%; in the assay on MCF7, 12%; with KB it was 6%.

In the case of `COC(=O)C1(Cc2ccc(OC)cc2)CC(=O)OC1c1ccccc1` (configuration not stated), the inhibition of growth at 10 µM in assay [1] came out at 4%; in assay [2], 15%; with MCF7, 0%; in the assay with KB, 19%.

As to `COC(=O)C1(Cc2cccc(OC)c2)CC(=O)OC1c1ccccc1` (configuration not stated), the inhibition of growth at 10 µM was 14% in assay [1], 37% in assay [2], 12% in the assay on MCF7 and 0% in the assay on KB.

Regarding `COC(=O)C1(Cc2ccc(OC)cc2)CC(=O)OC1(c1ccccc1)C(F)(F)F` (configuration not stated), the inhibition of growth at 10 µM was 20% in assay [1], 64% in assay [2], 8% in the assay with MCF7 and 56% in the assay on KB.

In the case of `COC(=O)C1(Cc2ccccc2C(F)(F)F)CC(=O)OC1(C)c1ccccc1` (configuration not stated), the inhibition of growth at 10 µM in assay [1] is 18%; in assay [2] it was 0%; with MCF7, 6%; with KB, 0%.

`COC(=O)C1(Cc2ccc3c(c2)OCO3)CC(=O)OC1c1ccccc1` (configuration not stated): the inhibition of growth at 10 µM in assay [1] stood at 18%; in assay [2], 18%; in the assay on MCF7, 11%; in the assay on KB, 0%.

Take `CCC1(c2ccccc2)OC(=O)CC1(Cc1ccccc1)C(=O)OC` (configuration not stated): the inhibition of growth at 10 µM was 25% in assay [1], 17% in assay [2], 12% in the assay with MCF7 and 22% in the assay on KB.

On to `COC(=O)c1ccc(CC2(C(=O)OC)CC(=O)OC2c2ccccc2)cc1` (configuration not stated), for which the inhibition of growth at 10 µM in assay [1] was 0%; in assay [2], 19%; in the assay on MCF7, 0%; in the assay on KB it was 12%.

With `COC(=O)C1(Cc2ccccc2)CC(=O)OC1(C)C` (configuration not stated), the inhibition of growth at 10 µM was 15% in assay [1], 9% in assay [2], 7% in the assay with MCF7 and 0% with KB.

`COC(=O)C1(Cc2ccc(OC)cc2)CC(=O)OC1c1ccco1` (configuration not stated): the inhibition of growth at 10 µM in assay [1] was 0%; in assay [2] it was 29%; with MCF7, 0%; in the assay on KB, 32%.

On to `COC(=O)C1(Cc2ccc(OC)cc2)CC(=O)OC1(C)c1cccc(C(F)(F)F)c1` (configuration not stated), for which the inhibition of growth at 10 µM was determined as 30% in assay [1], 52% in assay [2], 46% in the assay on MCF7 and 38% in the assay on KB.

Consider `COC(=O)C1(Cc2cccc(C(F)(F)F)c2)CC(=O)OC1c1ccccc1` (configuration not stated), for which the inhibition of growth at 10 µM in assay [1] came out at 14%; in assay [2] it was 34%; in the assay with MCF7, 11%; with KB, 39%.

With `COC(=O)C1(Cc2ccc3c(c2)OCO3)CC(=O)OC1c1cc(OC)c(OC)c(OC)c1` (configuration not stated), the inhibition of growth at 10 µM in assay [1] turned out to be 22%; in assay [2], 10%; in the assay with MCF7, 8%; in the assay with KB, 0%.

Consider `COC(=O)C1(Cc2ccc(OC)cc2)CC(=O)OC1c1cc(OC)c(OC)c(OC)c1` (configuration not stated), for which the inhibition of growth at 10 µM in assay [1] stood at 24%; in assay [2] it was 32%; in the assay with MCF7 it was 27%; with KB it was 16%.

For the compound `CCC1(c2ccccc2)OC(=O)CC1(Cc1ccc(OC)cc1)C(=O)OC` (configuration not stated), the inhibition of growth at 10 µM in assay [1] stood at 28%; in assay [2], 30%; with MCF7, 21%; in the assay with KB it was 11%.

For the compound `COC(=O)C1(Cc2ccccc2OC)CC(=O)OC1(C)c1ccccc1` (configuration not stated), the inhibition of growth at 10 µM in assay [1] worked out at 13%; in assay [2], 34%; in the assay on MCF7 it was 10%; in the assay on KB, 9%.

`COC(=O)[C@@]1(Cc2ccc(OC)cc2)CC(=O)O[C@]1(C)c1ccccc1`: the inhibition of growth at 10 µM in assay [1] came out at 56%; in assay [2] it was 68%; in the assay on MCF7, 59%; in the assay with KB it was 98%.

Turning to `COC(=O)C1(Cc2ccc(OC)cc2)CC(=O)OC1(C)c1cc(OC)c(OC)c(OC)c1` (configuration not stated), the inhibition of growth at 10 µM in assay [1] was 8%; in assay [2], 24%; in the assay with MCF7, 7%; with KB, 0%.

In the case of `COC(=O)C1(Cc2ccccc2)CC(=O)OC1(C)c1ccccc1` (configuration not stated), the inhibition of growth at 10 µM was found to be 9% in assay [1], 22% in assay [2], 13% in the assay with MCF7 and 6% in the assay with KB.

Regarding `COC(=O)[C@]1(Cc2ccc(OC)cc2)CC(=O)O[C@]1(C)c1ccccc1`, the inhibition of growth at 10 µM is 0% in assay [1], 24% in assay [2], 0% in the assay with MCF7 and 15% in the assay on KB.

With `COC(=O)C1(Cc2cccc(OC)c2)CC(=O)OC1(C)c1ccccc1` (configuration not stated), the inhibition of growth at 10 µM in assay [1] came out at 14%; in assay [2], 30%; in the assay on MCF7 it was 16%; with KB, 5%.

On to `COC(=O)C1(Cc2cccc(C(F)(F)F)c2)CC(=O)OC1(C)c1ccccc1` (configuration not stated), for which the inhibition of growth at 10 µM in assay [1] came out at 22%; in assay [2] it was 21%; with MCF7, 20%; in the assay on KB, 21%.

Take `COC(=O)c1ccc(CC2(C(=O)OC)CC(=O)OC2(C)c2ccccc2)cc1` (configuration not stated): the inhibition of growth at 10 µM in assay [1] amounted to 44%; in assay [2] it was 43%; with MCF7, 35%; with KB, 22%.

Consider `COC(=O)C1(Cc2ccc(OC)cc2)CC(=O)OC1c1ccc(C(F)(F)F)cc1` (configuration not stated), for which the inhibition of growth at 10 µM in assay [1] worked out at 0%; in assay [2], 2%; in the assay on MCF7, 4%; in the assay on KB it was 0%.

On to `CCCCCCC1OC(=O)CC1(Cc1ccc(OC)cc1)C(=O)OC` (configuration not stated), for which the inhibition of growth at 10 µM worked out at 12% in assay [1], 8% in assay [2], 28% with MCF7 and 13% in the assay on KB.

Consider `COC(=O)C1(Cc2cc(OC)c(OC)c(OC)c2)CC(=O)OC1c1cc(OC)c(OC)c(OC)c1` (configuration not stated), for which the inhibition of growth at 10 µM in assay [1] is 13%; in assay [2], 0%; in the assay on MCF7, 3%; in the assay with KB, 0%.
